The text below walks through data of patent US5691338A, “1,2-dithiole-3 thiones for the treatment of reverse transcriptase-dependent viral infections” (priority 1995, dated 1997).

Series [1] deals with glutathione levels (GSH) in H9 cells. In words: Elevation of glutathione (GSH) levels in H9 cells. The class given is cell-based, human. As to conditions: for fold induction at 30 µM / fold induction at 60 µM / fold induction at 120 µM: Homo sapiens, read-out: Glutathione levels, treated to control value. Here is the method: (§1) Five ml of medium was added to T-25 flasks and DMSO containing tests compounds were added to a final concentration of 0.1%. Control medium contained 0.1% DMSO. After the drugs were added, 5×10^6 cells in 5 ml of medium was added to each T-25 flask. The cells were grown at 37° C. in a humidified incubator supplemented with 5% CO2 until harvested (N=3 flasks/group). At the indicated times, cells were isolated by centrifugation (500×g×10 min) and were washed three times by adding 10 ml of ice-cold DPBS, mixing, and centrifuging in a refrigerated centrifuge (500×g×10 min) to isolate the cell pellets. The cells were then lysed by the addition of 400 μl of ice-cold DPBS containing 0.5% Triton X-100 and vortexing. Supernatants were then isolated by centrifuging the lysates (5000×g×20 min). Samples were kept on ice or refrigerated until the reagents for QR or GSH spectrophotometric assays were added to the aliquoted microtiter plates. QR levels were determined by aliquoting 10 μl/well of supernatant in a 96-well plate and measuring the activity by the assay described by Prochaska and Santamaria (20) except that the final NADP^+ concentration was 200 μM (21). Samples were assayed in quadruplicate, and dicoumarol inhibitable-rates (which generally represented less than 5% of the total rate) were also measured. Spectrophotometric blanks contained 10 μl of DPBS with 0.5% Triton X-100. For the GSH assay, 300 μl of sample was placed in a centricon-10microconcentrator and centrifuged (5000×g×45 min) until enough ultrafiltrate could be collected. 50 μl/well of sample in quadruplicate was placed in a 96 well "half-area" plate after which 20 μl of 1 mM Ellman's reagent dissolved in DPBS was added. The yellow color (22) developed within 5 min and was scanned with a uvmax microtiter scanner (Palo Alto, Calif.) at 405 nm. Spectrophotometric blanks contained 50 μl DPBS with 0.5% Triton X-100 and 20 μl of 1 mM Ellman's reagent in DPBS. The optical densities of the specimens were calibrated to a GSH standard curve. Protein contents were determined in 3 ml cuvettes by the Bradford method (23). The protein content in the ultrafiltrates employed for GSH determinations were negligible (<0.01 mg/ml).

The test system of series [2] is quinone reductase (QR) in H9 cells. Description: Elevation of quinone reductase (QR) in H9 cells. The class given is cell-based, human. As to conditions: for fold induction at 30 µM / fold induction at 60 µM / fold induction at 120 µM: Homo sapiens, read-out: Quinone reductase, treated to control value. Here is the method:
as §1
We confirmed that the induction of QR in microtiter wells mirrored our results in T-25 flasks by using the method of Prochaska and Santamaria (20). Medium (100 μl) containing 0.1% final concentration DMSO was added to all wells except columns designated to contain the highest concentration of drug or spectrophotometric blanks in duplicate sets of U-bottomed microtiter plates. 200 μl of media containing drug (final DMSO concentration=0.1%) was added to the empty column of wells and then diluted in 2-fold serial dilutions across. After the serial dilutions were performed, 100 μl of media containing 1×10^6 cells/ml was added to each well, and the plates were placed in a 37° C. incubator for 48 h. One set of plates was assayed as described (21) for QR activity, the other was assayed for cell number by the method for Alley et al. (24).

Series [3] has as its system HIV-1 (HTLVIIIB). Description: microbe, parasite or virus in culture. It counts as cell-based. As to conditions: up to 120 μM, H9 cells.
The next series deals with H9 cells. In words: Cytotoxicity in H9 cells by trypan blue exclusion. The class given is cell-based, human. As to conditions: up to 30 μM (tert-butylhydroquinone), 120 μM (1,2-dithiole-3-thione), 60 μM (dimethyl fumarate).
In series [4] the target is T1, HIV-1 reverse transcriptase (RT) (Human immunodeficiency virus type 1 group M subtype B, UniProt P04585).
T1 construct: Recombinant HIV-1 reverse transcriptase (RT) was obtained from Worthington (Freehold, N.J.); purchased Worthington (Freehold, N.J.)
Description: Inhibition of recombinant HIV-1 reverse transcriptase (TTP incorporation). The class given is biochemical. As to conditions: poly(A):oligo(dT) and TTP as substrates. Here is the method: Reverse transcriptase assays were performed as described by Flexner, et al. (25) using recombinant HIV-1 RT as the source of enzyme. Dilutions and assay were carried out in 96-well "half-area" plates. The enzyme with various concentrations of test compounds were dissolved in DPBS containing 1% w/v BSA and diluted in 50 μl volumes; 10 μl aliquots in triplicate were transferred to another plate for the enzyme assay. The reactions were initiated by the addition of 25 μl/well of buffer containing 50 mM Tris.cndot.Cl (pH 8.0), 75 mM KCl, 1 mM dithiothreitol, 2 mM MgCl2, 5 μg/ml poly(A), 2.5 μg/ml oligo (dT), 10 μCi/ml ^32 p TTP with or without unlabeled TTP. […] TTP incorporation was measured by spotting 20 μl of the reaction cocktail onto DE81 paper, washing the paper with 4×5 min washes of 300 mM NaCl and 30 mM sodium citrate (pH 7.0), drying the paper, and counting the paper by liquid scintillation counting. The assays performed with oltipraz and 1,2-dithiole-3-thione contained 0.29% final concentration DMSO. This concentration of DMSO had no effect on RT activity.

In series [5] the test system is HIV-1 (HTLVIIIB). In words: microbe, parasite or virus in culture. As to conditions: Human immunodeficiency virus 1, H9, read-out: median dose (p24 release). Here is the method: The effects for test compounds were assessed by means of both IFA and p24 release. In general, the following protocol was followed: H9 cells were infected with HIV-1 at 1000 50% infective doses of viruses/10^6 cells. Virus was allowed to adsorb for 1 h, after which unadsorbed virus was removed by centrifugation. The cells were resuspended and washed twice with PBS (without Ca^+2 or Mg^+2 salts) and centrifuged to collect the cell pellet (150×g×10 min). Cells were suspended in fresh medium and added at a final cell density of 500,000 cells/ml in a 96-well plate with media containing 0.1% DMSO and various concentrations of test compounds. The cells were re-fed freshly prepared media containing 0.1% DMSO±test compounds on day four (for preinduction experiments, cells were exposed to inducers on days -2, 0, and +4 days relative to infection). After seven days, cells were examined for cytoxicity by trypan blue exclusion, the degree of infection with HIV-1 by IFA, and the supernatants were assayed for p24 levels according to the manufacturer's directions. The IFA procedure can be summarized as follows: The cells were washed twice in PBS and were placed in 5 mm 12-well slides. After allowing the slides to dry and fixing the cells with acetone for 5 min, 10 μl of HIV-1 positive serum in 40 μl PBS was added to each well and allowed to incubate at 37° C. for 30 min. After incubation, the slides were washed twice with PBS and incubated at 37° C. for 30 min with 2.5 μl goat anti-human IgG-fluorescein isothiocyanate conjugate in 50 μl PBS containing 0.01% Evans Blue per well. The slides were then washed twice with PBS, dried, and mounted with 50% glycerol in PBS, and scored for the percentage of fluorescent cells by fluorescent microscopy.
Statistical significance for GSH and QR levels were established by the unpaired t test using the INSTAT statistics program (Graphpad, San Diego, Calif.). The Ki of oltipraz was determined by performing Segal transformations (26) of Dixon plots. […] Calculations were performed on spreadsheets using Lotus 1-2-3 software (Cambridge, Mass.).

Series [6] relates to HIV-1. As to conditions: cited from earlier work.
Series [7] relates to HIV-1. As to conditions: HIV-1 infected patients, pharmacokinetics study; cited from earlier work.
The mark [8] stands for this setting: dose- and time-dependent, H9 cells.

Where two headings read alike, the source gives them in different places.

Take `S=c1ccss1` [1,2-dithiole-3-thione]: the “Glutathione Levels” value in series [1] (48 h, 30 μM) is reported as 53.5 ± 7.1 nmol/mg; in series [1] (48 h, 60 μM), 57.5 ± 1.3 nmol/mg; in series [1] (48 h, 120 μM) it was 74.9 ± 3.6 nmol/mg; in series [1] (96 h, 30 μM), 59.4 ± 1.4 nmol/mg; in series [1] (96 h, 60 μM), 65.0 ± 2.1 nmol/mg; in series [1] (96 h, 120 μM), 109 ± 28 nmol/mg. The fold induction at 30 µM worked out at 1.17 in series [1] (H9, 48 h); 1.17 in series [1] (H9, 96 h); 1.61 in series [2] (H9, 48 h); 1.17 in series [2] (H9, 96 h). Besides, the fold induction at 60 µM in series [1] (H9, 48 h) was 1.26; in series [1] (H9, 96 h), 1.71; in series [2] (H9, 48 h), 1.67; in series [2] (H9, 96 h), 1.71. For the same compound, the fold induction at 120 µM came to 1.63 in series [1] (H9, 48 h); 2.15 in series [1] (H9, 96 h); 2.07 in series [2] (H9, 48 h); 2.15 in series [2] (H9, 96 h). Besides, the “elevation of GSH” value in series [1] (setting [8]) is “able to elevate both GSH and QR levels”. The “Quinone Reductase Specific Activity” value in series [2] (48 h, 30 μM) amounted to 232 ± 16 nmol/min/mg; in series [2] (48 h, 60 μM), 244 ± 12.1 nmol/min/mg; in series [2] (48 h, 120 μM) it was 299 ± 11 nmol/min/mg; in series [2] (96 h, 30 μM) it was 59.4 ± 1.4 nmol/min/mg; in series [2] (96 h, 60 μM) it was 65.0 ± 2.1 nmol/min/mg; in series [2] (96 h, 120 μM) it was 109 ± 28 nmol/min/mg. Further, the “elevation of QR” value in series [2] (setting [8]) was “able to elevate both GSH and QR levels”. Also, in the series with HIV-1 (HTLVIIIB) [3], the “inhibition of HIV-1 replication” value was “inactive”. The “cytotoxicity at optimal inductive doses” value in the series with H9 cells is “non-cytotoxic”. Also, the “inhibition of recombinant HIV-1 reverse transcriptase” value in series [4] was “inactive”.
Regarding `Cc1cn([C@H]2C[C@H](N=[N+]=[N-])[C@@H](CO)O2)c(=O)[nH]c1=O` [AZT, 3'-azido-3'-deoxythymidine], the IC50 with HIV-1 (HTLVIIIB) [5] was determined as 45 nM. The “synergy with anti-HIV-1 drugs” value in the series with HIV-1 [6] (in vitro, Kong et al.) was “synergistic with anti-HIV-1 drugs such as phosphonoformate”.
Consider `CC(=O)N[C@@H](CS)C(=O)O` [N-acetylcysteine], for which the “inhibition of HIV-1 replication” value in the series on HIV-1 [6] (cultured cells) is recorded as “effectively inhibit the replication of HIV-1”. The “effect on surrogate markers for HIV-1” value in the series on HIV-1 [7] is “did not alter surrogate markers for HIV-1”.
